In patent US9656988B2 (Pharmacyclics LLC, priority 2013, dated 2017) one finds IC50 data, which are given here for 27 molecules.

Where two headings read alike, the source gives them in different places.

In the experiment the target is BTK (Homo sapiens (Human), UniProt Q06187). The experiment is described as follows: Btk in vitro inhibitory activity (one of Method A TR-FRET, Method B electrophoretic mobility shift, Method C radiometric filter binding). The class given is biochemical. (In general: A gel shift assay detects complexes by their altered migration in electrophoresis.)
The mark [1] stands for this setting: determined using one of the methods of Example 355a, 355b and 355c, read-out: BTK IC50.

BTK, sequence (Q06187 whole entry): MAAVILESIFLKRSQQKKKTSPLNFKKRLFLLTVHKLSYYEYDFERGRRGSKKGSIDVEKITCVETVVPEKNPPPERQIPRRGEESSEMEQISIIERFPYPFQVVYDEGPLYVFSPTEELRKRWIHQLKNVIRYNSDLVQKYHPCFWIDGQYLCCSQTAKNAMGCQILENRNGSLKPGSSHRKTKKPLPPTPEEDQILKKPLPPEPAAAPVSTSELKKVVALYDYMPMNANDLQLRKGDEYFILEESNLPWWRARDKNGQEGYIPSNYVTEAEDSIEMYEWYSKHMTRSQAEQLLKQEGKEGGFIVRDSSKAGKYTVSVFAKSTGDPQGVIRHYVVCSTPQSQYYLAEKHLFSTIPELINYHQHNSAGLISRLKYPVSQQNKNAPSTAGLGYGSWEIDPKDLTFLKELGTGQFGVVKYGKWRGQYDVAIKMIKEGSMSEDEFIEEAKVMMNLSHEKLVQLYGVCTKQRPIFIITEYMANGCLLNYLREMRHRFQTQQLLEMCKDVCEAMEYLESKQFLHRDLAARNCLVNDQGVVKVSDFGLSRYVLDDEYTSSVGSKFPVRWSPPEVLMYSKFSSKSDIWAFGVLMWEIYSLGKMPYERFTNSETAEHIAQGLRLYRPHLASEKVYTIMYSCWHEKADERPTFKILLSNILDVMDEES

On to `CN(C)C(=O)N[C@@H]1CCCN(c2cnc(C(N)=O)c(Nc3ccc(C4(C)CCN(C5CCCC5)CC4)cc3)n2)C1` [Example 222, (R)-3-(4-(1-cyclopentyl-4-methylpiperidin-4-yl)phenylamino)-5-(3-(3,3-dimethylureido)piperidin-1-yl)pyrazine-2-carboxamide], for which the IC50 is < 0.01 µM under setting [1] and < 0.01 µM (read-out: Btk (IC50)).
As to `NC(=O)c1nnc(N2CCC[C@@H](NC(=O)c3ccc(C(F)(F)F)cc3)C2)nc1Nc1ccc(C(=O)N2CCOCC2)cc1` [Example 6, (R)-5-(4-(morpholine-4-carbonyl)phenylamino)-3-(3-(4-(trifluoromethyl)benzamido)piperidin-1-yl)-1,2,4-triazine-6-carboxamide], the IC50 under setting [1] is < 0.01 µM.
As to `Cc1ncc(C(=O)N[C@@H]2CCCN(c3nnc(C(N)=O)c(Nc4ccc(C(=O)N5CCOCC5)cc4)n3)C2)s1` [Example 93, (R)—N-(1-(6-carbamoyl-5-(4-(morpholine-4-carbonyl)phenylamino)-1,2,4-triazin-3-yl)piperidin-3-yl)-2-methylthiazole-5-carboxamide], the IC50 (read-out: Btk (IC50)) is < 0.01 µM.
For the molecule `NC(=O)c1nnc(N2CCC[C@@H](NC(=O)c3ccc(Cl)cc3)C2)nc1Nc1ccc(C(=O)N2CCOCC2)cc1` [Example 8, (R)-3-(3-(4-chlorobenzamido)piperidin-1-yl)-5-(4-(morpholine-4-carbonyl)phenylamino)-1,2,4-triazine-6-carboxamide], under setting [1], the IC50 is < 0.01 µM.
For `C=CC(=O)N1CCC[C@@H](N(C)c2cnc(C(N)=O)c(Nc3ccc(C(=O)N4CCOCC4)cc3)n2)C1` [Example 74, (R)-5-((1-acryloylpiperidin-3-yl)(methyl)amino)-3-(4-(morpholine-4-carbonyl)phenylamino)pyrazine-2-carboxamide], the 50% inhibitory concentration (IC50) is, setting by setting: under setting [1], < 0.01 µM; (read-out: Btk (IC50)) < 0.01 µM.
Consider `CN(C/C=C/C(=O)N1CCC[C@@H](N(C)c2cnc(C(N)=O)c(Nc3ccc(C(=O)N4CCOCC4)cc3)n2)C1)C1CC1` [Example 156, (R,E)-5-((1-(4-(cyclopropyl(methyl)amino)but-2-enoyl)piperidin-3-yl)(methyl)amino)-3-(4-(morpholine-4-carbonyl)phenylamino)pyrazine-2-carboxamide], for which the concentration for half-maximal inhibition (IC50) under setting [1] was < 0.01 µM and the half-maximal inhibitory concentration (IC50) (read-out: Btk (IC50)) was < 0.01 µM.
For `NC(=O)c1ncc(N2CCC[C@@H](NC(=O)C3CC4(CCC4)C3)C2)nc1Nc1ccc(C2CCN(C3CC3)CC2)cc1` [Example 309, 3-(4-(1-cyclopropylpiperidin-4-yl)phenylamino)-5-((3R)-3-(spiro[3.3]heptane-2-carboxamido)piperidin-1-yl)pyrazine-2-carboxamide], the half-inhibitory concentration (IC50) is 0.1 to 1 µM under setting [1] and 0.1 to 1 µM (read-out: Btk (IC50)).
As for `CCOc1ccc(Nc2nc(N3CCC[C@@H](NC(=O)c4ccc(OC)cc4)C3)cnc2C(N)=O)cc1` [Example 111, (R)-3-(4-ethoxyphenylamino)-5-(3-(4-methoxybenzamido)piperidin-1-yl)pyrazine-2-carboxamide], the IC50 lay within 0.01 to 0.1 µM under setting [1] and 0.01 to 0.1 µM (read-out: Btk (IC50)).
Take `CN(C)C(=O)N[C@@H]1CCCN(c2cnc(C(N)=O)c(Nc3ccc(C4CCNCC4)cc3Cl)n2)C1` [Example 213, (R)-3-(2-chloro-4-(piperidin-4-yl)phenylamino)-5-(3-(3,3-dimethylureido)piperidin-1-yl)pyrazine-2-carboxamide]: the IC50 is, setting by setting: (Btk (IC50)) 0.01 to 0.1 µM; under setting [1], 0.01 to 0.1 µM.
As for `CN1CCN([C@@H]2CCCN(c3cnc(C(N)=O)c(Nc4ccc(C5(C(F)(F)F)CC5)cc4)n3)C2)C1=O` [Example 262, (R)-5-(3-(3-methyl-2-oxoimidazolidin-1-yl)piperidin-1-yl)-3-(4-(1-(trifluoromethyl)cyclopropyl)phenylamino)pyrazine-2-carboxamide], under setting [1], the half-maximal inhibitory concentration (IC50) lay within 0.01 to 0.1 µM.
`NC(=O)c1ncc(N2CCC[C@@H](NC(=O)c3cccc(Cl)c3)C2)nc1Nc1ccc(C2CCN(C3CC3)CC2)cc1` [Example 312, (R)-5-(3-(3-chlorobenzamido)piperidin-1-yl)-3-(4-(1-cyclopropylpiperidin-4-yl)phenylamino)pyrazine-2-carboxamide]: the IC50 under setting [1] was < 0.01 µM and the IC50 (read-out: Btk (IC50)) was < 0.01 µM.
In the case of `CN(C)C(=O)N[C@@H]1CCCN(c2cnc(C(N)=O)c(Nc3ccc(OC4CCCC4)cc3)n2)C1` [Example 189, (R)-3-(4-(cyclopentyloxy)phenylamino)-5-(3-(3,3-dimethylureido)piperidin-1-yl)pyrazine-2-carboxamide], the IC50 by setting is: (Btk (IC50)) 0.01 to 0.1 µM; under setting [1], 0.01 to 0.1 µM.
On to `CCOc1ccc(C(=O)N[C@@H]2CCCN(c3nnc(C(N)=O)c(Nc4ccc(C(=N)N(C)C)cc4)n3)C2)cc1` [Example 342, (R)-5-(4-(N,N-dimethylcarbamimidoyl)phenylamino)-3-(3-(4-ethoxybenzamido)piperidin-1-yl)-1,2,4-triazine-6-carboxamide], for which the IC50 lay in the range of 0.01 to 0.1 µM under setting [1] and 0.01 to 0.1 µM (read-out: Btk (IC50)).
For the molecule `NC(=O)c1ncc(N2CCC[C@@H](N3CCNC3=O)C2)nc1Nc1ccc(C2CCN(C3CCCC3)CC2)cc1` [Example 274, (R)-3-(4-(1-cyclopentylpiperidin-4-yl)phenylamino)-5-(3-(2-oxoimidazolidin-1-yl)piperidin-1-yl)pyrazine-2-carboxamide], the 50% inhibitory concentration (IC50) reads like this: under setting [1], < 0.01 µM; (read-out: Btk (IC50)) < 0.01 µM.
Take `CN(C)C(=O)N[C@@H]1CCCN(c2nnc(C(N)=O)c(Nc3ccc(C4CCN(C5CCCC5)CC4)cc3)n2)C1` [Example 329, (R)-5-(4-(1-cyclopentylpiperidin-4-yl)phenylamino)-3-(3-(3,3-dimethylureido)piperidin-1-yl)-1,2,4-triazine-6-carboxamide]: the 50% inhibitory concentration (IC50) was < 0.01 µM (Btk (IC50)) and < 0.01 µM under setting [1].
For the molecule `NC(=O)c1ncc(N2CCC[C@@H](N3CCN(C4CC4)C3=O)C2)nc1Nc1ccc(C2CCN(C3CCCC3)CC2)cc1` [Example 277, (R)-3-(4-(1-cyclopentylpiperidin-4-yl)phenylamino)-5-(3-(3-cyclopropyl-2-oxoimidazolidin-1-yl)piperidin-1-yl)pyrazine-2-carboxamide], the half-maximal inhibitory concentration (IC50) was < 0.01 µM under setting [1] and < 0.01 µM (read-out: Btk (IC50)).
On to `COc1ccc(C(=O)N[C@@H]2CCCN(c3cnc(C(N)=O)c(Nc4cc(C)ns4)n3)C2)cc1` [Example 119, (R)-5-(3-(4-methoxybenzamido)piperidin-1-yl)-3-(3-methylisothiazol-5-ylamino)pyrazine-2-carboxamide], for which the IC50 under setting [1] was in the range of 0.01 to 0.1 µM.
As for `COc1ccc(C(=O)N[C@@H]2CCCN(c3cnc(C(N)=O)c(Nc4ccc(C5CCN(C(C)C)CC5)cc4)n3)C2)cc1` [Example 134, (R)-3-(4-(1-isopropylpiperidin-4-yl)phenylamino)-5-(3-(4-methoxybenzamido)piperidin-1-yl)pyrazine-2-carboxamide], the half-inhibitory concentration (IC50) is < 0.01 µM under setting [1] and < 0.01 µM (read-out: Btk (IC50)).
In the case of `CN(C)CCOc1ccc(Nc2nc(N3CCC[C@@H](NC(=O)N(C)C)C3)cnc2C(N)=O)cc1` [Example 191, (R)-3-(4-(2-(dimethylamino)ethoxy)phenylamino)-5-(3-(3,3-dimethylureido)piperidin-1-yl)pyrazine-2-carboxamide], the concentration for half-maximal inhibition (IC50) fell in the range of 0.01 to 0.1 µM (Btk (IC50)) and 0.01 to 0.1 µM under setting [1].
Regarding `CCOc1ccc(C(=O)N[C@@H]2CCCN(c3nnc(C(N)=O)c(Nc4ccc(C#N)cc4)n3)C2)cc1` [Example 159, (R)-5-(4-cyanophenylamino)-3-(3-(4-ethoxybenzamido)piperidin-1-yl)-1,2,4-triazine-6-carboxamide], the IC50 is, setting by setting: (Btk (IC50)) 0.1 to 1 µM; under setting [1], 0.1 to 1 µM.
Consider `COc1ccc(C(=O)N[C@@H]2CCCN(c3cnc(C(N)=O)c(Nc4ccc(N5CCOCC5=O)cc4)n3)C2)cc1` [Example 126, (R)-5-(3-(4-methoxybenzamido)piperidin-1-yl)-3-(4-(3-oxomorpholino)phenylamino)pyrazine-2-carboxamide], for which the half-maximal inhibitory concentration (IC50) was in the range of 0.01 to 0.1 µM. Also, the 50% inhibitory concentration (IC50) under setting [1] is < 0.01 µM.
Turning to `COc1ccc(C(=O)N[C@@H]2CCCN(c3cnc(C(N)=O)c(Nc4ccc5ncccc5c4)n3)C2)cc1` [Example 120, (R)-5-(3-(4-methoxybenzamido)piperidin-1-yl)-3-(quinolin-6-ylamino)pyrazine-2-carboxamide], the IC50 is, setting by setting: under setting [1], 0.01 to 0.1 µM; (read-out: Btk (IC50)) 0.01 to 0.1 µM.
Consider `COc1ccc(C(=O)N[C@@H]2CCCN(c3cnc(C(N)=O)c(Nc4ccc(C(=O)N(C)C)cc4)n3)C2)cc1` [Example 118, (R)-3-(4-(dimethylcarbamoyl)phenylamino)-5-(3-(4-methoxybenzamido)piperidin-1-yl)pyrazine-2-carboxamide], for which the IC50 under setting [1] is 0.01 to 0.1 µM and the IC50 (read-out: Btk (IC50)) was in the range of 0.01 to 0.1 µM.
In the case of `COc1ccc(C(=O)N[C@@H]2CCCN(c3nnc(C(N)=O)c(Nc4ccc(C5CCN(C6CCCC6)CC5)cc4)n3)C2)cc1` [Example 334, (R)-5-(4-(1-cyclopentylpiperidin-4-yl)phenylamino)-3-(3-(4-methoxybenzamido)piperidin-1-yl)-1,2,4-triazine-6-carboxamide], the 50% inhibitory concentration (IC50) under setting [1] is < 0.01 µM.
`NC(=O)c1nnc(N2CCC[C@@H](NC(=O)c3ccc(OCC(F)(F)F)cc3)C2)nc1Nc1ccc(C(=O)N2CCOCC2)cc1` [Example 86, (R)-5-(4-(morpholine-4-carbonyl)phenylamino)-3-(3-(4-(2,2,2-trifluoroethoxy)benzamido)piperidin-1-yl)-1,2,4-triazine-6-carboxamide]: the half-maximal inhibitory concentration (IC50) (read-out: Btk (IC50)) is < 0.01 µM.
With `COc1ccc(C(=O)N[C@@H]2CCCN(c3nnc(C(N)=O)c(Nc4ccc(C5CCNCC5)cc4)n3)C2)cc1` [Example 333, (R)-3-(3-(4-methoxybenzamido)piperidin-1-yl)-5-(4-(piperidin-4-yl)phenylamino)-1,2,4-triazine-6-carboxamide], under setting [1], the half-inhibitory concentration (IC50) is < 0.01 µM.
For `CN(C)C/C=C/C(=O)N1CCC[C@@H](Nc2nnc(C(N)=O)c(Nc3ccc(C(=O)N4CCOCC4)cc3)n2)C1` [Example 66, (R,E)-3-(1-(4-(dimethylamino)but-2-enoyl)piperidin-3-ylamino)-5-(4-(morpholine-4-carbonyl)phenylamino)-1,2,4-triazine-6-carboxamide], the IC50 under setting [1] is < 0.01 µM.

What is called IC50 is the concentration needed to halve the response being measured.
